Laboratory results reported in patent publication US8003658B2, “Quinazoline derivatives for inhibiting cancer cell growth and method for the preparation thereof” (Hanmi Holdings Co., Ltd., priority 2004, dated 2011).

What was measured:
A431 (ATCC: CRL-1555) = experiment: Test of cancer cell growth inhibition (SRB), A431; settings: Homo sapiens, A-431, 72 h, read-out: IC50 A431
SK-Br3 (ATCC: HTB-30) = experiment: Test of cancer cell growth inhibition (SRB), SK-Br3; settings: Homo sapiens, SK-BR-3, 72 h, read-out: IC50 SK-Br-3

Row | SMILES | IC50 (A431 (ATCC: CRL-1555)) [nM] | IC50 (SK-Br3 (ATCC: HTB-30)) [nM]
1 | O=C(CCCNC(=O)c1ccccc1)Nc1ccc2ncnc(Nc3ccc(OCc4cccc(F)c4)c(Cl)c3)c2c1 [Example 90, N-(3-{4-[3-chloro-4-(3-fluoro-benzyloxy)-phenylamino]-quinazolin-6-ylcarbamoyl}-propyl)-benzamide] | 423 | 628
2 | CCOC(=O)C(=O)NCCCC(=O)Nc1ccc2ncnc(Nc3ccc(OCc4cccc(F)c4)c(Cl)c3)c2c1 [Example 91, N-(3-{4-[3-chloro-4-(3-fluoro-benzyloxy)-phenylamino]-quinazolin-6-ylcarbamoyl}-propyl)-oxalamic acid ethylester] | 603 | 445
3 | O=C(CCCNC(=O)C1CC1)Nc1ccc2ncnc(Nc3ccc(OCc4cccc(F)c4)c(Cl)c3)c2c1 [Example 92, cyclopropylcarboxylic acid (3-{4-[3-chloro-4-(3-fluoro-benzyloxy)-phenylamino]-quinazolin-6-ylcarbamoyl}-propyl)-amide] | 293 | 80
4 | O=C(CCCNC(=O)c1ccoc1)Nc1ccc2ncnc(Nc3ccc(OCc4cccc(F)c4)c(Cl)c3)c2c1 [Example 94, furan-3-carboxylic acid (3-{4-[3-chloro-4-(3-fluoro-benzyloxy)-phenylamino]-quinazolin-6-ylcarbamoyl}-propyl)-amide] | 245 | 70
5 | O=C(CCCNC(=O)c1cn[nH]c1)Nc1ccc2ncnc(Nc3ccc(OCc4cccc(F)c4)c(Cl)c3)c2c1 [Example 95, 1H-pyrazol-4-carboxylic acid (3-{4-[3-chloro-4-(3-fluoro-benzyloxy)-phenylamino]-quinazolin-6-ylcarbamoyl}-propyl)-amide] | 994 | 331
6 | C=CC(=O)NCCCC(=O)Nc1ccc2ncnc(Nc3ccc(F)c(Cl)c3)c2c1 [Example 98, 4-acryloylamino-N-[4-(3-chloro-4-fluoro-phenylamino)-quinazolin-6-yl]-butyramide] | 79 | 184
7 | COCCNCC(=O)NCCCC(=O)Nc1ccc2ncnc(Nc3ccc(OCc4cccc(F)c4)c(Cl)c3)c2c1 [Example 106, N-{4-[3-chloro-4-(3-fluoro-benzyloxy)-phenylamino]-quinazolin-6-yl}-4-[2-(2-methoxy-ethylamino)-acetylamino]-butyramide] | 359 | 48
8 | CS(=O)(=O)CCNCC(=O)NCCCC(=O)Nc1ccc2ncnc(Nc3ccc(OCc4cccc(F)c4)c(Cl)c3)c2c1 [Example 107, N-{4-[3-chloro-4-(3-fluoro-benzyloxy)-phenylamino]-quinazolin-6-yl}-4-[2-(2-methanesulfonyl-ethylamino)-acetylamino]-butyramide] | 641 | 51
9 | CC(C)(C)OC(=O)NCCCCC(=O)Nc1ccc2ncnc(Nc3ccc(OCc4cccc(F)c4)c(Cl)c3)c2c1 [Example 114, (4-{4-[3-chloro-4-(3-fluoro-benzyloxy)-phenylamino]-quinazolin-6-ylcarbamoyl}-butyl)-carbamic acid t-butylester] | 136 | 216
10 | C[S+]([O-])CC(=O)NCCC(=O)Nc1ccc2ncnc(Nc3ccc(OCc4cccc(F)c4)c(Cl)c3)c2c1 (centres unmarked) [Example 118, N-{4-[3-chloro-4-(3-fluoro-benzyloxy)-phenylamino]-quinazolin-6-yl}-3-(2-methanesulfinyl-acetylamino)-propionamide] | 735 | 161
11 | O=C(CCNC(=O)C(F)(F)F)Nc1ccc2ncnc(Nc3ccc(OCc4cccc(F)c4)c(Cl)c3)c2c1 [Example 119, N-{4-[3-chloro-4-(3-fluoro-benzyloxy)-phenylamino]-quinazolin-6-yl}-3-(2,2,2-trifluoro-acetylamino)-propionamide] | 161 | 69
12 | CC(=O)OCC(=O)NCCC(=O)Nc1ccc2ncnc(Nc3ccc(OCc4cccc(F)c4)c(Cl)c3)c2c1 [Example 121, acetic acid (2-{4-[3-chloro-4-(3-fluoro-benzyloxy)-phenylamino]-quinazolin-6-ylcarbamoyl}-ethylcarbamoyl)-methylester] | 616 | 69
13 | CN(C)CCOCC(=O)NCCC(=O)Nc1ccc2ncnc(Nc3ccc(OCc4cccc(F)c4)c(Cl)c3)c2c1 [Example 122, N-{4-[3-chloro-4-(3-fluoro-benzyloxy)-phenylamino]-quinazolin-6-yl}-3-[2-(2-dimethylamino-ethoxy)-acetylamino]-propionamide] | 617 | 85
14 | O=C(CCNC(=O)Nc1ccccc1)Nc1ccc2ncnc(Nc3ccc(OCc4cccc(F)c4)c(Cl)c3)c2c1 [Example 124, N-{4-[3-chloro-4-(3-fluoro-benzyloxy)-phenylamino]-quinazolin-6-yl}-3-(3-phenyl-ureido)-propionamide] | 584 | 107
15 | O=C(CCNC(=O)NCc1ccco1)Nc1ccc2ncnc(Nc3ccc(OCc4cccc(F)c4)c(Cl)c3)c2c1 [Example 125, N-{4-[3-chloro-4-(3-fluoro-benzyloxy)-phenylamino]-quinazolin-6-yl}-3-(3-furan-2-ylmethyl-ureido)-propionamide] | 272 | 83
16 | COC(=O)NCCC(=O)Nc1ccc2ncnc(Nc3ccc(OCc4cccc(F)c4)c(Cl)c3)c2c1 [Example 126, (2-{4-[3-chloro-4-(3-fluoro-benzyloxy)-phenylamino]-quinazolin-6-ylcarbamoyl}-ethyl)-carbamic acid methylester] | 99 | 91
17 | O=C(CCNC(=O)OCc1ccccc1)Nc1ccc2ncnc(Nc3ccc(OCc4cccc(F)c4)c(Cl)c3)c2c1 [Example 128, (2-{4-[3-chloro-4-(3-fluoro-benzyloxy)-phenylamino]-quinazolin-6-ylcarbamoyl}-ethyl)-carbamic acid benzylester] | 489 | 585
18 | COCC(=O)NCCC(=O)Nc1ccc2ncnc(Nc3ccc(OCc4ccccn4)c(Cl)c3)c2c1 [Example 129-2, N-{4-[3-chloro-4-(pyridin-2-ylmethoxy)-phenylamino]-quinazolin-6-yl}-3-(2-methoxy-acetylamino)-propionamide] | 490 | 345
19 | COCC(=O)NCCC(=O)Nc1ccc2ncnc(Nc3ccc(OCc4cccnc4)c(Cl)c3)c2c1 [Example 132-2, N-{4-[3-chloro-4-(pyridin-3-ylmethoxy)-phenylamino]-quinazolin-6-yl}-3-(2-methoxy-acetylamino)-propionamide] | 880 | 662
20 | CS(=O)(=O)CC(=O)NCCC(=O)Nc1ccc2ncnc(Nc3ccc(OCc4cccnc4)c(Cl)c3)c2c1 [Example 133, N-{4-[3-chloro-4-(pyridin-3-ylmethoxy)-phenylamino]-quinazolin-6-yl}-3-(2-methanesulfonyl-acetylamino)-propionamide] | 7260 | 1110
21 | C=CC(=O)NCCC(=O)Nc1ccc2ncnc(Nc3ccc(OCc4cccnc4)c(Cl)c3)c2c1 [Example 134, N-(2-{4-[3-chloro-4-(pyridin-3-ylmethoxy)-phenylamino]-quinazolin-6-ylcarbamoyl}-ethyl)-acrylamide] | 193 | 4
22 | COCCOCC(=O)NCCC(=O)Nc1ccc2ncnc(Nc3ccc(OCc4cccc(F)c4)c(Cl)c3)c2c1 [Example 135, N-{4-[3-chloro-4-(3-fluoro-benzyloxy)-phenylamino]-quinazolin-6-yl}-3-[2-(2-methoxy-ethoxy)-acetylamino]-propionamide] | 123 | 92
